The numbers were not newly measured in patent US8475839B2 (Novartis AG, priority 2006, dated 2013), which cites them from elsewhere.

Test in data set [1]: not given
The source holds these as a separate data set.

Regarding `CCOC(=O)C1=C(COCCN)NC(C)=C(C(=O)OC)C1c1ccccc1Cl` (centres unmarked) [Amlodipine besylate, 3-ethyl-5-methyl-2(2-aminoethoxymethyl)-4-(2-chlrorophenyl)-1,4-dihydro-6-methyl-3,5-pyridinedicarboxylate benzenesulphonate], the solubility in water result was “slightly soluble”. Further, the absolute oral bioavailability in data set [1] is listed as 64-90%. `NS(=O)(=O)c1cc2c(cc1Cl)NCNS2(=O)=O` [Hydrochlorothiazide]: the absolute oral bioavailability in data set [1] is 60-80%. On to `CCCCC(=O)N(Cc1ccc(-c2ccccc2-c2nnn[nH]2)cc1)[C@H](C(=O)O)C(C)C` [valsartan, (S)-N-valeryl-N-{[2′-(1H-tetrazole-5-yl)-biphenyl-4-yl]-methyl}-valine], for which, in data set [1], the absolute oral bioavailability result is listed as “about 25%”. Besides, in data set [1] (range around the about 25% value), the “absolute oral bioavailability, wide range” value is 10-35%.
